In one data set the test system is spatial memory. Briefly: Morris water maze task. It is filed as in vivo. The note with it: rats; ZL006-05 90 mg/kg/d, i.g.; MK801 0.25 mg/kg/d, i.v.; 6 days. As for the experimental part: The Morris water maze task was used to exam spatial cognitive performance of rats. A circular swimming pool (Jiliang Neuroscience Inc.) measuring 180 cm in diameter and 48 cm in height was filled with water to a depth of 26 cm at 24 ± 2 °C. Four starting points around the edge of the pool were designated as N, E, S, and W, which divided the pool into four quadrants. A platform, 10 cm in diameter, was located in a constant position in the middle of one quadrant. To render it invisible to the rats, platform was submerged 2.0 cm below the surface of the water. The task for the rats was to escape from the water by locating the hidden platform. Two days before training, the animals were habituated to swimming for 60 s in the pool without a platform. In training session, rats were trained to escape from the water by locating the platform which was above the water with a red flag on it. Then, one block of four trails was given for 6 consecutive days, and on each day, two groups of rats were administrated with MK801 (0.25 mg/kg, i.v.) or vehicle (6 mL/kg, i.v.) 30 minutes before the first trail. Meanwhile, another two groups of rats were treated with ZL006-05 (90 mg/kg, i.g.) or vehicle (6 mL/kg, i.g.) 1 hour before the first trail. […] During retention, the number of crossings of the platform location and the time spent in the target quadrant were measured.

Data set [1] concerns SNL-induced mechanical hyperalgesia. As to the kind of experiment: SNL-induced mechanical hyperalgesia, von Frey. Type of data set: in vivo, mice. As for the experimental part: Neuropathic pain was induced by segmental spinal nerve ligation (SNL). Animals were anesthetized with isoflurane. After the loss of righting reflex, the animal was fixed in the prone position. The SNL model was prepared as described previously: a median skin incision with about 3-5 cm length in L4-S2 level of the mouse back was made, the muscles next to the vertebrae till the sixth lumbar protruding were separated, the L5/L6 joint protruding on the right side was exposed and excised, and L6 processus transversus was partially split so that the L4-L6 spinal nerves on the right side were exposed. L5 nerve was gently isolated and tightly ligated with 5-0 silk thread. The wound was closed with 4-0 silk thread suture and covered with iodine solution. After nerve ligation, animals with signs of paw clonus or autotomy were excluded from further experiments.
For mice, the threshold for 50% PWT response to mechanical stimulus was quantified by assessing the paw withdrawal threshold using von Frey filaments (Touch-Test TM Sensory Evaluator, North coast Medical, Inc.). Mice were placed individually in a plastic cage (4.5 × 5 × 11 cm) with a wire mesh bottom which allowed full access to the paws. Behavioral accommodation was allowed for 20-30 min until cage exploration and major grooming activities ceased. Mechanical threshold was measured by applying a von Frey filament to the ventral surface of the right hind paw until a positive sign of pain behavior was elicited. The paradigm for assessing the threshold was as follows. Von Frey filaments with logarithmically incremental stiffness (0.02-2 g) were applied serially to the paw by the up-down method. The filaments were presented, in ascending order of strength, perpendicular to the plantar surface with sufficient force to causes light bending against the paw and held for 4s. A positive response was noted if the paw was sharply withdrawn. Flinching immediately upon removal of the hair was also considered a positive response. The 2-g filament was selected as the upper limit cut-off for testing. If there was no response at 2-g filament, animals were assigned this cut-off value. The pattern of positive and negative withdrawal responses was converted to 50% threshold according to the formula: 50% PWT = 10 log (X) + κδ. X = value (in log unit) of the final von Frey hair used; κ is correction factors based on the pattern of responses from the calibration table; δ = mean difference in log units between stimuli (here, 0.224).

Data set [2] deals with basic pain threshold under normal conditions. Briefly: Mechanical nociceptive thresholds in normal rats. Type of data set: in vivo, rat. Particulars: ZL006-05 90 mg/kg/d, i.g., × 11 d, 2 h after administration. How it is done: For rats, the threshold for 50% paw withdrawal (50% PWT) response to mechanical stimulus was assessed through a dynamic plantar apparatus (Ugo Basile, Italy). The 50% PWT refers to that the probability of paw withdrawal response to repeated mechanical stimulus is 50%. Rats were placed individually in a plastic cage (17 × 15 × 15 cm) with a wire mesh bottom which allowed full access to the paws. Behavioral accommodation was allowed for 15-20 min until cage exploration and major grooming activities ceased. A maximal cut-off of 50g/50s was set to prevent tissue damage. To record the PWT in response to mechanical stimulus, each rat was measured five times with a 5-min interval, and the mean value was recorded after excluding maximal and minimum values. The experimental procedures were performed in a double-blind manner.

In data set [3] the test system is laminae I excitatory neurons in the SDH. Briefly: mIPSCs/mEPSCs recordings from acute spinal slices of chronically treated rats. Type of data set: in vivo, rat. The note with it: rats, ZL006-05 0.3 mg/d intrathecal infusion ×11 d. From the text:
Osmotic minipumps (models 1004 for mouse and 2ML4 for rat; Alzet) and intrathecal cannulas (0.61 mm outer diameter and 0.28 mm inner diameter for mouse, 0.99 mm outer diameter and 0.58 mm inner diameter for rat) were filled with a solution of PBS. Cannulas were inserted into the subarachnoid space through the space between the L5 and L6 vertebrae and the tip of the catheter was implanted at the L5 spinal segmental level.
All solutions were bubbled with 95% O2 -5% CO2.
For mPSCs measurements, whole-cell recordings were made from putative excitatory neurons in superficial dorsal horn using low-resistance pipettes (4-8 MΩ). Before mPSCs measurements, excitatory neurons were distinguished from inhibitory neurons by firing pattern analysis according to the established relationship between neuronal firing pattern and its neurotransmitter phenotype, [32]-[34] For mEPSCs measurement, the membrane potential was held at -60 mV. […] Tetrodotoxin (0.5 μM) and bicuculline (20 μM) were added to block action potentials and GABAA receptor-mediated currents respectively. For mIPSCs measurement, the membrane potential was held at -70 mV, microelectrodes were filled with internal pipette solution containing CsCl 140, HEPES 10.0, MgATP 4.0, NaGTP 3.0, EGTA 1.0, MgCl2 1.0, CaCl2 0.3 (in mM). […]. […] Each recording lasts more than 5 min. Data were analyzed using Mini software. Up to 120 events from each neuron were selected at a fixed sampling interval to generate cumulative probability.

As for `CC1(C)C2CCC1(C)C(OC(=O)c1ccc(NCc3cc(Cl)cc(Cl)c3O)cc1O)C2` (stereo not shown) [ZL006-05], the “Spatial memory in the Morris water maze task” value with spatial memory was “but not ZL006-05 caused significantly impaired spatial memory”. Also, the “Analgesic tolerance, mechanical hyperalgesia, 28 days treatment” value in data set [1] (SNL mice, ZL006-05 60 mg/kg/d, i.g., × 28 d, pregabalin 30 mg/kg/d) is reported as “maintained its antinociceptive effect during 28 days treatment”. Besides, the “Analgesic tolerance, mechanical hyperalgesia” value in data set [1] (SNL nNOS-/- and WT mice, ZL006-05 60 mg/kg/d, i.g., 11 d) was “caused a remarkable analgesic tolerance in nNOS^-/- mice but not in WT mice”. The “Effect on SNL-induced mechanical hyperalgesia” value in data set [1] (mice, ZL006-05 i.g., single administration, 0-12 h) is on record as “reduced SNL-induced mechanical hyperalgesia”. The “Basic mechanical nociceptive threshold” value in data set [2] is “did not change the basic threshold”. For the same compound, in data set [3], the mEPSCs result is “without affecting mEPSCs” and the mIPSCs result is listed as “significantly increased mIPSCs amplitude”.

The values above are taken from paper PMC8058733, “A pain killer without analgesic tolerance designed by co-targeting PSD-95-nNOS interaction and α2-containning GABAARs” (Theranostics, 2021).
